# The source made the active and inactive calls. The rule behind the calls is not given here.
# Key:
# [1] = tested on: Staphylococcus aureus; test: In vivo antimicrobial activity against Staphylococcus aureus Newman infected in Caenorhabditis elegans AU37 nematodes assessed as viability of nematodes incubated for 5 days by susceptibility test; format: functional; conditions: 120 h, time 5 day
# [2] = tested on: Enterococcus faecium; test: Antimicrobial activity against antibiotic-resistant Enterococcus faecium ATCC 700221 assessed as inhibition of visible growth measured after 20 to 24 hrs incubation by CLSI method; format: functional; conditions: time 20-24 hrs
# [3] = tested on: Staphylococcus aureus; test: In vivo antimicrobial activity against Staphylococcus aureus USA300 infected in Caenorhabditis elegans AU37 nematodes assessed as viability of nematodes incubated for 5 days by susceptibility test; format: functional; conditions: USA300, 120 h, time 5 day
# [4] = tested on: Staphylococcus aureus; test: In vivo antimicrobial activity against Staphylococcus aureus UAMS-1 infected in Caenorhabditis elegans AU37 nematodes assessed as viability of nematodes incubated for 5 days by susceptibility test; format: functional; conditions: UAMS-1, 120 h, time 5 day
# [5] = tested on: Cell membrane; test: Induction of membrane permeability in Staphylococcus aureus ATCC 700699 assessed as increase in fluorescence intensity at 4 times of MIC incubated for 15 mins measured for 1 hr by propidium iodide/real time fluorescence based flow cytometry Rvb = 3.5); conditions: time 75.0 min
# [6] = tested on: Staphylococcus aureus; test: Antimicrobial activity against Staphylococcus aureus ATCC 25923 assessed as eradication of biofilm measured after 24 hrs incubation by Calgary method; format: functional
# [7] = tested on: Enterococcus faecalis; test: Antimicrobial activity against antibiotic-susceptible Enterococcus faecalis ATCC 29212 assessed as eradication of biofilm measured after 24 hrs incubation by Calgary method; format: functional
# [8] = tested on: Enterococcus faecalis; test: Antimicrobial activity against antibiotic-resistant Enterococcus faecalis ATCC 51299 assessed as inhibition of visible growth measured after 20 to 24 hrs incubation by CLSI method; format: functional; conditions: time 20-24 hrs
# [9] = tested on: Staphylococcus aureus; test: Antimicrobial activity against antibiotic-resistant Staphylococcus aureus ATCC 700699 assessed as inhibition of visible growth measured after 20 to 24 hrs incubation by CLSI method; format: functional; conditions: time 20-24 hrs
# [10] = tested on: Enterococcus faecalis; test: Antimicrobial activity against antibiotic-susceptible Enterococcus faecalis ATCC 29212 assessed as inhibition of visible growth measured after 20 to 24 hrs incubation by CLSI method; format: functional; conditions: time 20-24 hrs
# [11] = tested on: Staphylococcus aureus; test: Antimicrobial activity against methicilline-resistant Staphylococcus aureus ATCC 700699 persisters assessed as bacterial killing at 32 time of MIC concentration measured for every 2 hrs upto 8 hrs by Persisters time course assay; format: functional, organism-based
# [12] = tested on: Bacillus subtilis; test: Antimicrobial activity against antibiotic-resistant Bacillus subtilis ATCC 6623 assessed as inhibition of visible growth measured after 20 to 24 hrs incubation by CLSI method; format: functional; conditions: time 20-24 hrs
# [13] = Toxicity in Caenorhabditis elegans AU37 assessed as survival at 20 ug/ml measured for 4 days; conditions: at 20 µg/mL, time 4 day
# [14] = tested on: Erythrocyte; test: Hemolytic activity in sheep red blood cells assessed as hemolysis at 64 ug/ml incubated for 30 mins relative to control; format: toxicity, cell-based, Ovis aries; conditions: 0.5 h, at 64 µg/mL
# [15] = tested on: Staphylococcus aureus; test: Antimicrobial activity against methicillin-resistant Staphylococcus aureus USA300 infected in liquid-based Caenorhabditis elegans co-infection model assessed as rescue of worms by measuring viability at 1 ug/ml incubated for 5 days (reference value: 20%); format: functional; conditions: dose 1 µg/ml; time 5 day
# [16] = tested on: Staphylococcus aureus; test: Antimicrobial activity against clinical isolate Staphylococcus aureus Smu81 assessed as inhibition of growth measured after 20 to 24 hrs incubation by CLSI method; format: functional; conditions: time 20-24 hrs
# [17] = tested on: Staphylococcus aureus; test: Antimicrobial activity against Staphylococcus aureus ATCC 25923 assessed as inhibition of biofilm formation by measuring prevention of turbidity after 24 hrs incubation by Real-time monitoring method; format: functional
# [18] = tested on: Staphylococcus aureus; test: Antimicrobial activity against clinical isolate Staphylococcus aureus Smu21 assessed as inhibition of growth measured after 20 to 24 hrs incubation by CLSI method; format: functional; conditions: time 20-24 hrs
# [19] = tested on: Staphylococcus aureus; test: Antimicrobial activity against antibiotic-resistant Staphylococcus aureus ATCC BAA-2312 assessed as inhibition of visible growth measured after 20 to 24 hrs incubation by CLSI method; format: functional; conditions: time 20-24 hrs
# [20] = tested on: Staphylococcus aureus; test: Antimicrobial activity against antibiotic-resistant Staphylococcus aureus ATCC 33592 assessed as inhibition of visible growth measured after 20 to 24 hrs incubation by CLSI method; format: functional; conditions: time 20-24 hrs
# [21] = tested on: Enterococcus faecalis; test: Antimicrobial activity against antibiotic-susceptible Enterococcus faecalis ATCC 29212 assessed as inhibition of biofilm formation by measuring prevention of turbidity after 24 hrs incubation by Real-time monitoring method; format: functional
# [22] = tested on: Cell membrane; test: Induction of membrane permeability in Staphylococcus aureus ATCC 700699 assessed as increase in fluorescence intensity at 2 times of MIC incubated for 15 mins measured for 1 hr by propidium iodide/real time fluorescence based flow cytometry Rvb = 3.5); format: subcellular; conditions: time 75.0 min
# [23] = Toxicity in Caenorhabditis elegans AU37 assessed as survival at 4 ug/ml measured for 4 days; conditions: 96 h, dose 4 µg/ml, time 4 day
# [24] = tested on: Staphylococcus aureus; test: Antimicrobial activity against Staphylococcus aureus UAB159 assessed as inhibition of growth measured after 20 to 24 hrs incubation by CLSI method; format: functional; conditions: time 20-24 hrs
# [25] = tested on: Enterococcus faecalis; test: Antimicrobial activity against Enterococcus faecalis ATCC 29212 assessed as inhibition of biofilm formation by measuring prevention of turbidity after 24 hrs incubation by Real-time monitoring method; format: functional
# [26] = tested on: Cell membrane; test: Induction of membrane permeability in Staphylococcus aureus ATCC 700699 assessed as increase in fluorescence intensity at 1 times of MIC incubated for 15 mins measured for 1 hr by propidium iodide/real time fluorescence based flow cytometry Rvb = 3.5); conditions: time 75.0 min
# [27] = tested on: Staphylococcus aureus; test: Antimicrobial activity against clinical isolate Staphylococcus aureus Smu9 assessed as inhibition of growth measured after 20 to 24 hrs incubation by CLSI method; format: functional; conditions: time 20-24 hrs
# [28] = tested on: Enterococcus faecium; test: Antimicrobial activity against Enterococcus faecium […] assessed as inhibition of biofilm formation after 24 hrs incubation by Real-time monitoring method; format: functional
# [29] = tested on: Cell membrane; test: Induction of membrane permeability in Staphylococcus aureus ATCC 700699 assessed as increase in fluorescence at 8 times of MIC incubated for 15 mins measured for 1 hr by propidium iodide/real time fluorescence based flow cytometry; format: subcellular
# [30] = tested on: Cell membrane; test: Induction of membrane permeability in Staphylococcus aureus ATCC 700699 assessed as increase in fluorescence at 0.5 to 2 times of MIC incubated for 15 mins measured for 1 hr by propidium iodide/real time fluorescence based flow cytometry; format: subcellular; conditions: time 75.0 min
# [31] = tested on: Staphylococcus aureus; test: Antimicrobial activity against methicillin-resistant Staphylococcus aureus USA300 infected in liquid-based Caenorhabditis elegans co-infection model assessed as rescue of worms by measuring viability at 4 ug/ml incubated for 5 days (reference value: 20%); format: functional; conditions: dose 4 µg/ml; time 5 day
# [32] = tested on: Panel NCI-60 (60 carcinoma cell lines); test: Cytotoxicity against human panel NCI-60 (60 carcinoma cell lines)cells assessed as cell viability at 10 uM measured after 24 hrs by resazurin assay; format: functional, cell-based
# [33] = tested on: Erythrocyte; test: Hemolytic activity in sheep red blood cells assessed as hemolysis at 16 to 32 ug/ml incubated for 30 mins relative to control; format: toxicity, cell-based, Ovis aries; conditions: 0.5 h, dose 16-32 µg/ml
# [34] = tested on: Cell membrane; test: Induction of membrane permeability in Staphylococcus aureus ATCC 700699 assessed as increase in fluorescence at 4 times of MIC incubated for 15 mins measured for 1 hr by propidium iodide/real time fluorescence based flow cytometry; format: subcellular; conditions: time 75.0 min
# [35] = tested on: Staphylococcus aureus; test: Bactericidal activity in antibiotic-resistant Staphylococcus aureus ATCC 700699 assessed as reduction in viable cell count at 4 times of MIC measured upto 24 hrs by time kill assay; format: functional, organism-based
# [36] = tested on: Staphylococcus aureus; test: Antimicrobial activity against methicillin-resistant Staphylococcus aureus USA300 infected in liquid-based Caenorhabditis elegans co-infection model assessed as rescue of worms by measuring viability at 2 ug/ml incubated for 5 days (reference value: 20%); format: functional; conditions: dose 2 µg/ml; time 5 day
# [37] = tested on: Staphylococcus aureus; test: Antimicrobial activity against antibiotic-resistant Staphylococcus aureus ATCC 33591 assessed as inhibition of visible growth measured after 20 to 24 hrs incubation by CLSI method; format: functional; conditions: time 20-24 hrs
# [38] = tested on: Staphylococcus aureus; test: Antimicrobial activity against antibiotic-susceptible Staphylococcus aureus ATCC 25923 assessed as inhibition of biofilm formation by measuring prevention of turbidity after 24 hrs incubation by Real-time monitoring method; format: functional
# [39] = tested on: Staphylococcus aureus; test: Antimicrobial activity against antibiotic-susceptible Staphylococcus aureus ATCC 25923 assessed as inhibition of biofilm formation after 24 hrs incubation by Real-time monitoring method; format: functional
# [40] = tested on: Staphylococcus aureus; test: Antimicrobial activity against antibiotic-susceptible Staphylococcus aureus ATCC 25923 assessed as inhibition of biofilm formation on plastic coverslips at 0.5 times of MIC measured after 24 hrs by electron microscopy; format: functional, organism-based
structure (smiles),measurement,setting,value
CCCCCCCCCC(=O)N[C@@H](Cc1c[nH]c2ccccc12)C(=O)N[C@H](CC(N)=O)C(=O)N[C@@H](CC(=O)O)C(=O)N[C@@H]1C(=O)NCC(=O)N[C@@H](CCCN)C(=O)N[C@@H](CC(=O)O)C(=O)N[C@H](C)C(=O)N[C@@H](CC(=O)O)C(=O)NCC(=O)N[C@H](CO)C(=O)N[C@@H]([C@H](C)CC(=O)O)C(=O)N[C@@H](CC(=O)c2ccccc2N)C(=O)O[C@@H]1C,MIC,[1],4 µg/mL
same,MIC,[2],16 µg/mL
same,MIC,[3],4 µg/mL
same,MIC,[4],4 µg/mL
same,Activity,[5],7.02%
same,MBEC,[6],>32 µg/mL
same,MBEC,[7],16 µg/mL
same,MIC,[8],16 µg/mL
same,MIC,[9],8 µg/mL
same,MIC,[10],16 µg/mL
O=C(O)c1ccc(-n2cc(CNc3ccc(Cl)c(C(F)(F)F)c3)c(-c3cccc(F)c3)n2)cc1,Activity,[11],Active
same,MIC,[12],0.5 µg/mL
same,"survival at 96 h, 20 ug/ml",[13],> 80%
same,Activity,[14],< 10%
same,Activity,[15],90%
same,MIC,[16],4 µg/mL
same,MIC,[17],4 µg/mL
same,MIC,[18],4 µg/mL
same,MIC,[19],1 µg/mL
same,MIC,[20],1 µg/mL
same,MIC,[1],1 µg/mL
same,MBBC,[21],16 µg/mL
same,Activity,[22],32.3%
same,Activity,[23],Non-Toxic
same,MIC,[24],4 µg/mL
same,MIC,[25],8 µg/mL
same,Activity,[26],22.3%
same,MIC,[3],2 µg/mL
same,MIC,[4],1 µg/mL
same,Activity,[5],95.6%
same,MIC,[27],2 µg/mL
same,MBIC,[28],8 µg/mL
same,Activity,[29],inactive
same,Activity,[30],inactive
same,Activity,[31],90%
same,Activity,[32],inactive
same,Activity,[33],Non-Toxic
same,Activity,[34],Active
same,Activity,[35],Active
same,Activity,[36],90%
same,MIC,[37],1 µg/mL
CN[C@H](CC(C)C)C(=O)N[C@H]1C(=O)N[C@@H](CC(N)=O)C(=O)N[C@H]2C(=O)N[C@H]3C(=O)N[C@H](C(=O)N[C@H](C(=O)O)c4cc(O)cc(O)c4-c4cc3ccc4O)[C@H](O)c3ccc(c(Cl)c3)Oc3cc2cc(c3O[C@@H]2O[C@H](CO)[C@@H](O)[C@H](O)[C@H]2O[C@H]2C[C@](C)(N)[C@H](O)[C@H](C)O2)Oc2ccc(cc2Cl)[C@H]1O [VANCOMYCIN],MBBC,[38],>16 µg/mL
same,MIC,[12],0.25 µg/mL
same,MIC,[17],8 µg/mL
same,MBIC,[39],>16 µg/mL
same,MBBC,[21],>16 µg/mL
same,MIC,[2],> 32 µg/mL
same,Activity,[40],Active
same,MBIC,[28],>16 µg/mL
same,MBEC,[6],>32 µg/mL
same,MIC,[8],> 32 µg/mL
